Laboratory results: patent publication US10149907B2, “Combinations of a photosensitizer with a hydrogen sulfide donor, thioredoxin inhibitor or nitroxide for use in photodynamic therapy” (UNIVERSITY OF EXETER, priority 2014, dated 2018)
“Also recorded” adds a separate entry of the source. Where two headings read alike, the source gives them in different places.

How the values were obtained:
[1] = tested on: A431 cells; conditions: for cell viability, percentage of untreated control: 500 μM
Experimental: A431 cells were seeded at a density of 1×10^5 cells/ml in 96 well plates and incubated under 2% O2 for 48 h prior to treatment. After 24 h, the culture medium was replaced and the cells were placed back into the incubators under 2% O2. Following this incubation period, the culture medium was then removed and the plates were washed with PBS. The cells were then treated with 1 mM MAL in the absence or presence of one of the compounds of interest and then incubated again at 2% O2 for 3 h. For experiments carried out with SRHDs, this treatment step was carried out for 5 h at 2% O2. After treatment, the cells were washed with PBS, the culture medium was replaced and the cells were placed back under 2% O2 for 3 h. Following this final incubation, cell death was analysed using the resazurin viability assay.
Resazurin (7-hydroxy-3H-phenoxazin-3-one 0-oxide) is a weakly fluorescent blue dye used primarily in oxidation-reduction cell viability assays. Irreversible NADH-dependent reduction by the mitochondria in mammalian cells leads to the production of resorufin, a highly fluorescent product with excitation at 571 nm, emission at 585 nm.
A431 cells were seeded into 96 well plates at a density of 1.5*10^6 cells per ml (200 μl per well, 3*10^5 cells) and incubated for 24 h to adhere. Following incubation, the cells were washed and treated with the compound of interest for the relevant time, and then washed with PBS. […] After a 2 h incubation, the fluorescence of each well was measured (excitation: 571 nm, emission: 585 nm) using a fluorescence plate reader. Data from these experiments was plotted as a percentage of cell viability compared to untreated control cells.

[2] = tested on: A431 cells; experiment: cells; format: cell-based; conditions: for effect on photodynamic cell killing compared to MAL and irradiation only / modes of cell death (early apoptosis, late apoptosis, necrosis): 1 mM MAL + SRHD 1 μM + irradiation; for modes of cell death (early apoptosis, late apoptosis, necrosis): compared to MAL and irradiation, FIG. 2, 4
Experimental: A431 cells (human epithelial squamous cell carcinoma cells) were seeded at a density of 1×10^6 cells/ml in T12.5 cm^2 flasks and incubated under 2% O2 for 48 h prior to treatment. After 24 h, the culture medium was replaced and the cells were placed back into the incubators under 2% O2. Following this incubation period, the culture medium was then removed and the flasks were washed with PBS. The cells were then treated with one of the SRHDs and incubated at 2% O2 for 2 h, after which MAL was added to a final concentration of 1 mM and the cells were incubated at 2% O2 for 3 h. This meant in total, the cells were treated with the SRHDs for 5 h.
Following this final incubation, cell death was analysed by annexin V-FITC and propidium iodide staining in conjunction with flow cytometry.
(§1) Cell death analysis by flow cytometry was carried out using the annexin V-FITC/propidium iodide protocol. This protocol allows a quantitative assessment of cell death, particularly specific modes of death, and involves staining the cells with fluorescein isothiocyanate-conjugated annexin A5 (annexin V-FITC) and propidium iodide (PI). Positive staining with annexin V-FITC alone indicates an apoptotic cell; positive staining with PI alone indicates a necrotic cell and dual staining of both annexin V and PI indicates a “late apoptotic” cell.
From each flask being assessed, the old medium was removed and placed into a corresponding individual 15 ml Falcon tube in order to collect any cells that may have detached from the surface. The flask was washed once with 1 ml PBS; also deposited in the Falcon tubes. Trypsin (500 μl) was added to each flask and the flasks were returned to the incubator with their caps loosened. Cell detachment was monitored using an inverted light microscope, until 50% of the cells were detached. The flasks were then lightly tapped to detach the remainder of the cells. Medium (2 ml) was added to each flask in order to neutralise the trypsin present before being removed and dispensed into the Falcon tubes. One more wash with PBS was carried out in order to ensure any cells left in the flasks were collected. The Falcon tubes were then centrifuged at 490 g for 3 min, forming a pellet at the bottom of the tube. The supernatant was discarded, and the cells were re-suspended in 5 ml of PBS, in order to wash them, before being centrifuged again at 490 g for 3 min. […] The Falcon tubes were placed on ice and in the dark for 15 min to allow annexin V staining. […] The samples were then ready to be assessed by flow cytometry.
(§2) The following flow cytometry process of sample detection was used. When using annexin V-FITC and PI, the detectors being used were FL1 (λmax=520 nm) and FL3 (λmax=670 nm), respectively, each with their own logarithmic histogram generated by the software. The intensity of the fluorescence detected is measured on a logarithmic scale on the x-axis and the y-axis represents the number of cells detected at a given fluorescence intensity. A plot of FL1/FL3 produces a 4-quadrant graph, where unstained and untreated cells are located in the bottom left quadrant, representing any cells found in the 1st decade of the single plot logarithmic histograms. Single staining with annexin V-FITC and PI are located in the bottom right and top left quadrant, respectively, and dual staining is located in the top right quadrant. These quadrants represent any cells detected above the 1st decade of the logarithmic histograms.

[3] = tested on: A431 cells; experiment: Photodynamic cell killing in the presence of inhibitors of the thioredoxin antioxidant system or nitroxides (annexin V-FITC/propidium iodide flow cytometry); format: cell-based, human; conditions: for cell death: 3 h, irradiation
Experimental: After this treatment, the cells were irradiated for 5 min (630 nm, 25 J/cm^2), then washed with PBS and the culture medium was replaced, after which the cells were placed back under 2% O2 and incubated for a further 3 h. Following this final incubation, cell death was analysed by annexin V-FITC and propidium iodide staining in conjunction with flow cytometry.
as §1
From each flask being assessed, the old medium was removed and placed into a corresponding individual 15 ml Falcon tube in order to collect any cells that may have detached from the surface. The flask was washed once with 1 ml PBS; also deposited in the Falcon tubes. Trypsin (500 μl) was added to each flask and the flasks were returned to the incubator with their caps loosened. Cell detachment was monitored using an inverted light microscope, until 50% of the cells were detached. The flasks were then lightly tapped to detach the remainder of the cells. Medium (2 ml) was added to each flask in order to neutralise the trypsin present before being removed and dispensed into the Falcon tubes. One more wash with PBS was carried out in order to ensure any cells left in the flasks were collected. The Falcon tubes were then centrifuged at 490 g for 3 min, forming a pellet at the bottom of the tube. The supernatant was discarded, and the cells were re-suspended in 5 ml of PBS, in order to wash them, before being centrifuged again at 490 g for 3 min. The wash stage was carried out once more before re-suspending the cell pellet in 95 μl of ice cold calcium (Ca^2+) buffer (50 mM HEPES, 700 mM NaCl, 12.5 mM CaCl2, pH 7.4) and adding 5 μl 12.5 μg/ml of annexin V-FITC (final concentration, 1.25 μg/ml), under reduced light conditions to prevent bleaching of the FITC. The Falcon tubes were placed on ice and in the dark for 15 min to allow annexin V staining. After 15 min, 860 μl of Ca^2+ buffer (10 mM Hepes adjusted to pH 7.4, 140 mM NaCl and 2.5 mM CaCl2) was added, followed by 40 μl of 1 mg/ml PI in water (final concentration, 0.04 mg/ml) to give a final volume of 1 ml. The samples were then ready to be assessed by flow cytometry.
as §2

[4] = tested on: A431 cells; experiment: Mitochondrial reactive oxygen species generation during photodynamic irradiation, MitoSOX flow cytometry; format: cell-based, human; conditions: 3 hours, irradiated
Experimental: A431 cells were treated concurrently with AP39-C10 (10, 100 or 1000 nM) for 5 hours, MAL (1 mM) for 3 hours and MitoSOX (2.5 μM) for 1 hour, after which they were irradiated for 5 min (630 nm, 25 J/cm^2) and MitoSOX (mito-2-OH-E^+) fluorescence, indicative of mitochondrial oxidant production, was immediately analysed by flow cytometry. Results are set out in FIG. 23.
Mitochondria-targeted dihydroethidium (i.e. MitoSOX) was used to assess the production of mitochondrial reactive oxygen species (ROS) by PpIX photochemical reactions and to determine the effects of AP39-C10 on this process. All of the results are represented as a percentage of the untreated controls (100.0±8.5%). The fluorescence of the photoirradiated cells, which had been pre-treated with MAL, was 193.7±7.3% (p<0.001 c.f. untreated controls).

[5] = 1 mM MAL + SRHD 1 μM (5 h) + irradiation, 3 h post-irradiation
[6] = dark toxicity, without irradiation, SRHD 1 μM, 5 h, FIG. 1, 3

Compound	cell death [2, 5] [%]	modes of cell death (early apoptosis, late apoptosis, necrosis) [2]	cell viability, percentage of untreated control ([1]; 5 hours, FIG. 15, 16) [%]	cell death [2, 6] [%]	other results
NC(=S)c1ccc(O)cc1 [4-HTB, 4-hydroxythiobenzamide]	22.5±5.5	no effect on the types of cell death observed compared to treatment with MAL and irradiation			concentration up to which treatment was well tolerated ([1]; 5 hours, range 0.1-500 μM): up to 500 μM; effect on photodynamic cell killing compared to MAL and irradiation only [2]: no statistically significant effect on photodynamic cell killing
Oc1ccc(-c2cc(=S)ss2)cc1 [ADT-OH, 5-(4-hydroxyphenyl)-3H-1,2-dithiole-3-thione]	25.7±6	no effect on the types of cell death observed compared to treatment with MAL and irradiation	76.7±1.3		effect on photodynamic cell killing compared to MAL and irradiation only [2]: no statistically significant effect on photodynamic cell killing
O=C(CCCCCCC[P+](c1ccccc1)(c1ccccc1)c1ccccc1)Oc1ccc(-c2cc(=S)ss2)cc1 [AP39-C8]	46.3±2.1		20.1±4.5	14.9±2.3	
O=C(CCCCCCCCCCC[P+](c1ccccc1)(c1ccccc1)c1ccccc1)Oc1ccc(-c2cc(=S)ss2)cc1 [AP39-C12]	51.6±3.2		13.3±1.8	11.7±1.5	
NC(=S)c1ccc(OC(=O)CCCCCCC[P+](c2ccccc2)(c2ccccc2)c2ccccc2)cc1 [AP123-C8]	67.5±6.4		13.2±1.8	13.2±3.1	
NC(=S)c1ccc(OC(=O)CCCCCCCCCCC[P+](c2ccccc2)(c2ccccc2)c2ccccc2)cc1 [AP123-C12]	72.5±2.0	less effect on early apoptosis, instead increasing late apoptosis and necrosis	17.0±0.7	12.7±3.0	
CCC(C)SSc1ncc[nH]1 (stereo not drawn) [PX12, 2-[(1-Methylpropyl)dithio]-1H-imidazole]					cell death ([3]; 1 mM MAL + co-treatment 10 μM): 70.5±4.5%; potentiating effect on MAL photodynamic cell killing ([3]; summary of Examples 2A, 3A): more robust potentiating effect; MitoSOX fluorescence, percentage of untreated cells ([4]; MAL 1 mM + co-treatment 10 μM): 211.4±17.6%; cell viability, percentage of untreated control ([1]; 24 hours): 47.5±4.9%; concentration up to which well tolerated / no cytotoxicity ([1]; 24 hours): ≤ 100 µM
CC[PH](CC)(CC)[Au][S][C@@H]1O[C@H](COC(C)=O)[C@@H](OC(C)=O)[C@H](OC(C)=O)[C@H]1OC(C)=O [auranofin]					modes of cell death [3]: primarily increased necrotic cell death; also recorded: slightly increased late apoptotic cell death; also recorded: concentration-dependent increases in late apoptosis and necrosis, with little effect on early apoptosis; potentiating effect on MAL photodynamic cell killing [3]: more robust potentiating effect; concentration up to which well tolerated / no cytotoxicity ([1]; human): ≤ 10 µM
aurothiomalate [ATM]					cell death ([3]; 1 mM MAL + co-treatment 20 μM): 66.7±4.9%; potentiating effect on MAL photodynamic cell killing ([3]; summary of Examples 2A, 3A): more robust potentiating effect; MitoSOX fluorescence, percentage of untreated cells ([4]; MAL 1 mM + co-treatment 20 μM): 192.4±5.6%; tolerance (dark toxicity) ([1]; 0.1-500 μM, 24 hours): well tolerated at all concentrations tested
